Data on four compounds can be found in patent EP0120019B1, “PHARMACEUTICAL COMPOSITION HAVING A C[…]” (SCHERING AKTIENGESELLSCHAFT, priority 1982, dated 1983).

Data set [1] relates to Menschliche Leukämiezellen und Lungenkarzinomzellen. The data set is described as follows: Inhibition of proliferation (growth kinetics by cell count) of tumour cells in culture. The class given is cell-based. Particulars: for zytostatische Wirkung (Hemmung der Proliferation in vitro): general statement.
Data set [2] concerns adulte und embryonale Lungenfibroblasten. The data set is described as follows: Inhibition of proliferation of normal cells under the same culture conditions. It is filed as cell-based. Particulars: high doses such as 100 ug/ml; same test conditions. The source says:
Tag durch frisches Medium mit Lisurid ersetzt wurde, wobei sich die Menge des Ergot-Alkaloids auf die freie Base Lisurid bezieht. Die Wachstumskinetik, d.h. die Vermehrungsrate pro Zeiteinheit, wurde durch Bestimmung der Zellzahl nach 48, 96 und 144 Stunden ermittelt und mit der von Zellen verglichen, die in Lisurid-freiem Medium kultiviert wurden.

A short description of data set [3]: Long-term oral treatment of rats (104 - 107 weeks), mortality. The class given is in vivo, Han-Wistar-Ratten. Particulars: 0,02, 0,2 and 1,0 mg/kg oral.
Data set [4] has as its system Lungenademokarzinomen und Mäuseleukämien. The data set is described as follows: Long-term oral treatment of mice (104 - 107 weeks), mortality and tumour incidence. It is filed as in vivo, NMRI-Mäuse. Particulars: 0.02, 0,06 and 0,2 mg/kg oral. An excerpt: Des weiteren wurden NMRI-Mäuse mit 0.02.
The subject of data set [5] is weißen Blutzellen des Menschen. The data set is described as follows: Accumulation in cells on incubation, detected by fluorescence optics. The class given is cell-based. The following applies: incubation with 10^-7 -10-5-molar concentration. An excerpt: Die selektive Wirkung auf Tumore wird auch dadurch unterstützt, daß sich Ergot-Alkaloide wie Lisurid in einzelnen Organen selektiv anreichern und damit hier zu besonders hoher Wirksamkeit gelangen.

Structures are written as SMILES.

With `CCN(CC)C(=O)N[C@H]1C=C2c3cccc4[nH]c(Br)c(c34)C[C@H]2N(C)C1` [Bromergurid, 1,1-Diethyl-3-(2-brom-6-methyl-9.10-didehydro-8a-ergolinyl)-harnstoff], the “zytostatische Wirkung (Hemmung der Proliferation in vitro)” value (“zytostatische Wirkung” below) in data set [1] is “zytostatisch wirken”.

With `CCCN1CC(NC(=O)N(CC)CC)CC2c3cccc4[nH]cc(c34)CC21` (stereo not drawn) [Protegurid, 1,1-Diethyl-3-(6-u-propyl-8α-ergolinyl)-harnstoff], the “zytostatische Wirkung” value in data set [1] is “zytostatisch wirken”.

As to `CCN(CC)C(=O)N[C@H]1C=C2c3cccc4[nH]cc(c34)C[C@H]2N(C)C1` [Lisurid, 1,1-Diethyl-3-(6-methyl-9.10-didelhydro-8a-ergolinyl)-harnstoff], the “zytotoxische Wirkung” value in data set [1] (100 ug/ml) is “zytotoxische Wirkung”. Besides, in data set [2], the “Hemmung von Normalzellen” value was “wenn überhaupt nur minimal gehemmt”. For the same compound, the “Sterblichkeit (überwiegend tumorbedingt)” value in data set [3] is recorded as “dosisabhängig reduzieren”. In data set [4], the “Auftreten von Lungenademokarzinomen und Mäuseleukämien” value was “deutlichen Hemmung” and the Mortalität result is on record as “teilweise zur Verminderung der Mortalität”. Further, in data set [5], the “Anreicherung der Lisuridfluoreszenz” value was “massive Anreicherung”.

As for `CCN(CC)C(=O)N[C@H]1C[C@@H]2c3cccc4[nH]cc(c34)C[C@H]2N(C)C1` [Tergurid, 1,1-Diethyl-3-(6-methyl-8a-erfolinyl)-harnstoff], the “zytostatische Wirkung” value in data set [1] is on record as “zytostatisch wirken”.
